In patent US9307765B2, “Selective weed control using D-napropamide” (UPL Limited, priority 2013, dated 2016):
Several values for one entry are separate records, joined by “and”; a condition that tells them apart may be missing. Equal entries are not always repeated.

What was measured:
Format in all cases: in vivo
Papaver rhoeas = assay: Field trial on strawberries, pre-emergence, visual % control
Protocol: (§1) Field trials were conducted on various moncotyledonous weeds and dicotyledonous weeds and the effect of D-isomer of Napropamide was studied to understand the selective and effective control of dicotyledonous weeds over monocotyledonous weeds. The effect of D-isomer of Napropamide in comparison to racemic napropramide and untreated was studied, which is concluded hereinbelow:
(§2) Several small plot replicated trials were carried out to evaluate and/or compare the efficacy of D-Napropamide against a range of indicated annual broadleaved and grass weed species in the indicated crops. No problems were encountered during mixing or application of any of the product formulations or tank mixtures under test.
(§3) In each of the reported data, the homogeneity of variance was tested by Bartlett's test. Wherever this test indicated no homogeneity of variance, the transformed values were used for analysis of variance. Assessment data was then analyzed using a two-way analysis of variance (ANOVA) on untransformed and transformed data. The probability of no significant differences occurring between treatment means was calculated as the F probability value (p(F)). A mean comparison test was only performed and reported when the treatment of F that was calculated during analysis of variance was significant at the observed significance level specified for the mean comparison test. Where the data was transformed, treatment means in the reports were presented in their detransformed state, with the appropriate letter test and mean descriptions (LSD and standard deviation) derived from the transformed ANOVA.
Trial was carried out on strawberries to evaluate the efficacy and selectivity of D-Napropamide and equivalent rate of Devrinol (Napropramide) applied pre-emergence. […]

Aperaspica-venti = assay: Field trial in winter oilseed rape, pre-emergence, % control
Protocol: as §1, §2, §3
(§4) Trials were conducted to evaluate the selectivity and efficacy of D-isomer of Napropamide when applied pre-emergence to oilseed rape crop. The % control of weed was assessed at regular intervals.

Cirsium arvense = assay: as above
Protocol: as §1, §2, §3, §4

Fallopia convolvulus = assay: as above
Protocol: as §1, §2, §3, §4

Senecio vulgaris = assay: as above
Protocol: as §1, §2, §3, §4

Triticum aestivum = assay: as above
Protocol: as §1, §2, §3, §4

Veronica persica = assay: as above
Protocol: as §1, §2, §3, §4

[1] = 450 g/L @ 1.6 L/Ha, listed as D Napropamide

`CCN(CC)C(=O)[C@@H](C)Oc1cccc2ccccc12` [D-Napropamide, D-(−)-N,N-diethyl-2-(α-naphthoxy)propionamide] was tested, and the “Percentage Control at 70 DAA” value (Papaver rhoeas; 3.0 L/Ha of 450 g/L formulation) was 71.7%, the “Percentage Control at 70 DAA” value (Papaver rhoeas; 4.2 L/Ha of 450 g/L formulation) was 95.0% and the “Percentage Control at 70 DAA” value (Papaver rhoeas; 8.5 L/Ha of 450 g/L formulation) was 97.5%. For the same compound, the “Conclusion: efficacy in control vis-à-vis Napropamide at an equivalent dosage” value (shortened to “Conclusion: efficacy”) (Papaver rhoeas; Papaver rhoeas) was “surprising efficacy”, the “Percentage Control at 63 DAA” value (Aperaspica-venti; 450 g/L @ 1.4 L/Ha) was 35.00% and the “Percentage Control at 63 DAA” value (Aperaspica-venti; 450 g/L @ 1.6 L/Ha) was 58.75%. For the same compound, the “Percentage Control at 63 DAA” value (Aperaspica-venti; [1]) was 52.50%, the “Conclusion: efficacy” value (Aperaspica-venti; Aperaspica-venti, monocot) was “poor efficacy” and the “Percentage Control at 51 DAA” value (Cirsium arvense; 450 g/L @ 1.6 L/Ha) was 100.00%. The “Conclusion: control of the weed at equivalent dosage” value (Cirsium arvense; Cirsium arvense, dicot) was “superior control”, the “Percentage Control at 63 DAA” value (Fallopia convolvulus; 450 g/L @ 1.6 L/Ha) was 100.00% and the “Percentage Control at 63 DAA” value (Fallopia convolvulus; 450 g/L @ 2.0 L/Ha) was 100.00%. The “Conclusion: efficacy” value (Fallopia convolvulus; Fallopia convolvulus, dicot) was “superior efficacy”, the “Percentage Control at 214 DAA” value (Senecio vulgaris; [1]) was 82.15% and 94.72% and the “Conclusion: efficacy” value (Senecio vulgaris; Senecio vulgaris, dicot) was “superior efficacy”. The “Percentage Control at 51 DAA” value (Triticum aestivum; 450 g/L @ 1.4 L/Ha) was 0.00%, the “Percentage Control at 72 DAA” value (Triticum aestivum; 450 g/L @ 1.4 L/Ha) was 0.00% and the “Percentage Control at 51 DAA” value (Triticum aestivum; 450 g/L @ 1.6 L/Ha) was 0.00%. For the same compound, the “Percentage Control at 72 DAA” value (Triticum aestivum; 450 g/L @ 1.6 L/Ha) was 0.00%, the “Percentage Control at 51 DAA” value (Triticum aestivum; 450 g/L @ 1.8 L/Ha) was 0.00% and the “Percentage Control at 72 DAA” value (Triticum aestivum; 450 g/L @ 1.8 L/Ha) was 0.00%. For the same compound, the “Percentage Control at 51 DAA” value (Triticum aestivum; 450 g/L @ 2.0 L/Ha) was 0.00%, the “Percentage Control at 72 DAA” value (Triticum aestivum; 450 g/L @ 2.0 L/Ha) was 0.00% and the “Conclusion: control of the weed” value (Triticum aestivum; Triticum aestivum, monocot) was “negligible control”. For the same compound, the “Percentage Control at 63 DAA” value (Veronica persica; 450 g/L @ 1.4 L/Ha) was 100.00%, the “Percentage Control at 63 DAA” value (Veronica persica; 450 g/L @ 1.6 L/Ha) was 100.00% and the “Conclusion: efficacy” value (Veronica persica; Veronica persica, dicot) was “superior efficacy”.
